Assay results published in US20130324556A1, “Protease Activated Receptor 2 (PAR2) Antagonists” (priority 2011, published 2013).
Structures can show the parent of a compound that is named as a salt. Where two headings read alike, the source gives them in different places.

Molecular target: T1, human PAR2 receptor (Homo sapiens, UniProt P55085)
T1 construct: expressed in transfected cells; host or cells: 1321N1 cells
T1 sequence (P55085 26-397): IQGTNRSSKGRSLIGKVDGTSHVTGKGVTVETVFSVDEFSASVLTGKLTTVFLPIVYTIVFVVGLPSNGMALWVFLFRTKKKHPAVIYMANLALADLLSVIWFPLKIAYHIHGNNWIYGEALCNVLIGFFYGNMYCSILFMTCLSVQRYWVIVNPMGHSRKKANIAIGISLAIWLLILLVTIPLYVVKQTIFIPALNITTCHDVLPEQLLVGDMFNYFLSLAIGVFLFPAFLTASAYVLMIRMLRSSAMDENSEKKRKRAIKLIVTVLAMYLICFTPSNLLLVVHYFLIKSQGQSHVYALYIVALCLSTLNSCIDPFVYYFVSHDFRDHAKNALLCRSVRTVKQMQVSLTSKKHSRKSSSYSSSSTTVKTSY
Assay: PAR2 antagonist activity, calcium flux FLIPR assay (trypsin challenge)
Format: cell-based
Description: The PAR2 receptor couples through the Gq signaling pathway and results in activation of calcium mobilization. The functional activity of test compounds was routinely tested by measuring the ability of compounds to antagonize PAR2 (trypsin challenge) activity in a dose dependent manner, in 1321N1 cells transfected with the human PAR2 receptor, using a calcium flux Fluorescent Imaging Plate Reader FLIPR assay.
Briefly, test compounds were dissolved in DMSO to a concentration of 20 mM and stored in matrix screenmate racks. […] The compounds were then transferred to 384-well assay plates ready for use. […] The assay buffer used was HBSS buffer supplemented with 20 mM HEPES and 0.1% BSA (protease free), pH7.4. The loading/wash buffers were the same as the assay buffer.
Sub-cultivations were performed every 2-3 d. […] After washing, the cells were loaded with Fluo-4 AM dye (Molecular probes) at 2 μM containing 0.48 μg/mL pluronic acid for 60 min at 37° C. under 5% CO2.
A combined agonist/antagonist protocol was used to measure changes in intracellular calcium concentration. Compound (antagonist) was added to the cell plate using a Fluorometric Imaging Plate Reader (FLIPR) (Molecular Devices, Sunnyvale, Calif., USA). Basal fluorescence was recorded every second for 10 seconds prior to compound addition (10 μl) and fluorescence recorded every second for 1 min then every 6 seconds for a further 1 min. Trypsin (EC50 concentration) was then added using the FLIPR and fluorescence recorded as described above. Curve-fitting and parameter estimation were carried out using GraphPad Prism 4.0 (GraphPad Software Inc., San Diego, Calif.).

[1] = 1321N1 cells transfected with the human PAR2 receptor, trypsin (EC50 concentration) challenge, calcium flux FLIPR, read-out: PAR2 IC50

Compound | IC50 [1] [µM] | IC50 [µM]
NCc1ccc(CNC(=O)N2CCC(C(=O)c3ccc(F)cc3)CC2)cc1 [Example 18, 2,2,2-Trifluoroacetic acid;- N-{[4-(aminomethyl)phenyl]methyl}-4-[(4-fluorophenyl)carbonyl] piperidine-1-carboxamide] | 5 to 20 | 
NCc1ccc(CNC(=O)N2CCC(Oc3cccc(Cl)c3)CC2)cc1 [Example 14, N-{[4-(Aminomethyl)phen-yl]methyl}-4-(3-chlorophenoxy)piperidine-1-carboxamide hydrochloride] | 20 to 50 | 
NCc1ccc(CNC(=O)N2CCC(Sc3ccccc3)CC2)cc1 [Example 16, N-{[4-(Aminomethyl)phen-yl]methyl}-4-(phenylsulfanyl)piperidine-1-carboxamide hydrochloride] | 5 to 20 | 
CN(Cc1ccc(C(=N)N)cc1)C(=O)N1CCC(Cc2ccccc2)CC1 [Example 43, 4-Benzyl-N-[(4-carbamimidoylphenyl)methyl]-N-methylpiperidine-1-carboxamide hydrochloride] | 5 to 20 | 
NCc1ccc(CNC(=O)N2CCC(Oc3ccc(F)cc3)CC2)cc1 [Example 12, N-{[4-(Aminomethyl)phen-yl]methyl}-4-(4-fluorophenoxy)piperidine-1-carboxamide] | 5 to 20 | 
N=C(N)c1ccc(CNC(=O)C2CCN(Cc3ccccc3)CC2)cc1 [Example 44, 1-Benzyl-N-[(4-carbamimidoylphenyl)meth-yl]piperidine-4-carboxamide dihydrochloride] | 5 to 20 | 
O=C(NCc1ccc2nc[nH]c2c1)N1CCC(Cc2ccccc2)CC1 [Example 52, N-(1H-1,3-Benzodiazol-6-ylmethyl)-4-benzylpiperidine-1-carboxamide] | 5 to 20 | 
NCc1ccc(CNC(=O)N2CCC(Cc3ccccn3)CC2)cc1 [Example 8, N-{[4-(Aminomethyl)phen-yl]methyl}-4-(pyridin-2-ylmethyl)piperidine-1-carboxamide] | 5 to 20 | 
NCc1ccc(CNC(=O)N2CCC(Nc3ccccc3Cl)CC2)cc1 [Example 17, N-{[4-(Aminomethyl)phen-yl]methyl}-4-[(2-chlorophenyl)amino]piper-idine-1-carboxamide dihydrochloride] |  | < 5
O=C(NCc1ccc2nc[nH]c2c1)N1CCC(c2ccccc2)C1 (stereo not drawn) [Example 59, 2,2,2-Trifluoroacetic acid; N-(1H-1,3-benzodiazol-5-ylmethyl)-3-phenylpyrrolidine-1-carboxamide] | 5 to 20 | 
NCc1ccc(CNC(=O)N2CCC(c3ccccc3)CC2)cc1 [Example 20, N-{[4-(Aminomethyl)phen-yl]methyl}-4-phenylpiperidine-1-carboxamide hydrochloride] | 20 to 50 | 
N=C(N)c1ccc(CNC(=O)N2CCC(Cc3cccc(O)c3)CC2)cc1 [Example 47, N-[(4-Carbamimidoylphen-yl)methyl]-4-[(3-hydroxyphenyl)meth-yl]piperidine-1-carboxamide hydrochloride] | < 5 | 
O=C(NCc1ccc(C2=NCCN2)cc1)N1CCC(Cc2ccccc2)CC1 [Example 39, 4-Benzyl-N-{[4-(4,5-dihydro-1H-imidazol-2-yl)phenyl]methyl}piperidine-1-carboxamide] | 20 to 50 | 
O=C(NCc1ccc2nc[nH]c2c1)N1CCC(Cc2ccncc2)CC1 [Example 57, N-(1H-1,3-Benzodiazol-6-ylmethyl)-4-(pyridin-4-ylmethyl)piperidine-1-carboxamide] | 20 to 50 | 
NCc1ccc(CNC(=O)N2CCC(Cc3ccc(Cl)cc3)CC2)cc1 [Example 6, 2,2,2-Trifluoroacetic acid; N-{[4-(aminomethyl)phenyl]methyl}-4-[(4-chlorophenyl)methyl] piperidine-1-carboxamide] | < 5 | 
Cc1ccc(CC2CCN(C(=O)NCc3ccc(CN)cc3)CC2)cc1 [Example 7, 2,2,2-Trifluoroacetic acid; N-{[4-(aminomethyl)phenyl]methyl}-4-[(4-methylphenyl)methyl] piperidine-1-carboxamide] | 5 to 20 | 
NCc1cccc(CNC(=O)N2CCC(Cc3ccccc3)CC2)c1 [Example 67, N-{[3-(Aminometh-yl)phen-yl]methyl}-4-benzylpiperidine-1-carboxamide] | 50 to 100 | 
NCc1ccc(CNC(=O)N2CCC(Cc3ccccc3)CC2)cc1F [Example 35, N-{[4-(Aminomethyl)-3-fluorophenyl]methyl}-4-benzylpiperidine-1-carboxamide] | < 5 | 
NCc1ccc(CNC(=O)N2CCCC(Cc3ccccc3)C2)cc1 (stereo not drawn) [Example 21, 2,2,2-Trifluoroacetic acid; N-{[4-(aminomethyl)phenyl]methyl}-3-benzylpiperidine-1-carboxamide] | 50 to 100 | 
NCc1ccc(CNC(=O)N2CCC(Oc3ccccc3)CC2)cc1 [Example 11, N-{[4-(Aminomethyl)phen-yl]methyl}-4-phenoxypiperidine-1-carboxamide] | 20 to 50 | 
NCc1ccc(CNC(=O)N2CCN(Cc3ccccc3)CC2)cc1 [Example 24, N-{[4-(Aminomethyl)phen-yl]methyl}-4-benzylpiperazine-1-carboxamide] | 5 to 20 | 
O=C(NCc1ccc2c(c1)CNC2)N1CCC(Cc2ccncc2)CC1 [Example 65, N-(2,3-Dihydro-1H-isoindol-5-ylmethyl)-4-(pyridin-4-ylmethyl)piperidine-1-carboxamide dihydrochloride] | 50 to 100 | 
N=C(N)c1ccc(CNC(=O)N2CCC(Cc3ccncc3)CC2)cc1 [Example 40, N-[(4-Carbamimidoylphen-yl)methyl]-4-(pyridin-4-ylmethyl)piperi-dine-1-carboxamide] | < 5 | 
NCc1ccc(CNC(=O)N2CCC(C(=O)N3CCc4ccccc43)CC2)cc1 [Example 32, 2,2,2-Trifluoroacetic acid; N-{[4-(aminomethyl)phenyl]methyl}-4-[(2,3-dihydro-1H-indol-1-yl)carbonyl]piper-idine-1-carboxamide] | 50 to 100 | 
CN(Cc1ccc(CN)cc1)C(=O)N1CCC(Cc2ccccc2)CC1 [Example 30, 2,2,2-Trifluoroacetic acid; N-{[4-(aminomethyl)phenyl]methyl}-4-benzyl-N-methylpiperidine-1-carboxamide] | 50 to 100 | 
N=C(N)c1ccc(CNC(=O)N2CCC(c3ccccc3)C2)cc1 (stereo not drawn) [Example 41, N-[(4-Carbamimidoylphen-yl)methyl]-3-phenylpyrrolidine-1-carboxamide hydrochloride] | 5 to 20 | 
O=C(NCc1ccc2nn[nH]c2c1)N1CCC(Cc2ccccc2)CC1 [Example 61, N-(1H-1,2,3-Benzotriazol-6-ylmethyl)-4-benzylpiperidine-1-carboxamide] | 50 to 100 | 
NCc1ccc(CNC(=O)N2CCC(Cc3ccccc3)C2)cc1 (stereo not drawn) [Example 28, N-{[4-(Aminomethyl)phen-yl]methyl}-3-benzylpyrrolidine-1-carboxamide] | 20 to 50 | 
O=C(NCc1ccc(-c2ncc[nH]2)cc1)N1CCC(Cc2ccccc2)CC1 [Example 51, 4-Benzyl-N-{[4-(1H-imidazol-2-yl)phenyl]methyl}piperidine-1-carboxamide] | 20 to 50 | 
O=C(NCc1ccc2nc[nH]c2c1)N1CCC(Cc2ccccc2)C1 (stereo not drawn) [Example 60, 2,2,2-Trifluoroacetic acid; N-(1H-1,3-benzodiazol-5-ylmethyl)-3-benzylpyrrolidine-1-carboxamide] | 5 to 20 | 
